In patent US20240400553A1, “AMINE BASED MATRIPTASE 2 INHIBITORS AND USES THEREOF” (Disc Medicine, Inc., priority 2023, published 2024):

molecular target: T1, Human Recombinant Matriptase 2 (Homo sapiens, UniProt Q8IU80); assay: Matriptase 2 inhibition, fluorescence based assay (Method I); assay type: biochemical; conditions: Table A; Ki of Matriptase-2; read-out: Mat-2 Ki
T1 construct: made in house
T1 sequence (Q8IU80 1-811): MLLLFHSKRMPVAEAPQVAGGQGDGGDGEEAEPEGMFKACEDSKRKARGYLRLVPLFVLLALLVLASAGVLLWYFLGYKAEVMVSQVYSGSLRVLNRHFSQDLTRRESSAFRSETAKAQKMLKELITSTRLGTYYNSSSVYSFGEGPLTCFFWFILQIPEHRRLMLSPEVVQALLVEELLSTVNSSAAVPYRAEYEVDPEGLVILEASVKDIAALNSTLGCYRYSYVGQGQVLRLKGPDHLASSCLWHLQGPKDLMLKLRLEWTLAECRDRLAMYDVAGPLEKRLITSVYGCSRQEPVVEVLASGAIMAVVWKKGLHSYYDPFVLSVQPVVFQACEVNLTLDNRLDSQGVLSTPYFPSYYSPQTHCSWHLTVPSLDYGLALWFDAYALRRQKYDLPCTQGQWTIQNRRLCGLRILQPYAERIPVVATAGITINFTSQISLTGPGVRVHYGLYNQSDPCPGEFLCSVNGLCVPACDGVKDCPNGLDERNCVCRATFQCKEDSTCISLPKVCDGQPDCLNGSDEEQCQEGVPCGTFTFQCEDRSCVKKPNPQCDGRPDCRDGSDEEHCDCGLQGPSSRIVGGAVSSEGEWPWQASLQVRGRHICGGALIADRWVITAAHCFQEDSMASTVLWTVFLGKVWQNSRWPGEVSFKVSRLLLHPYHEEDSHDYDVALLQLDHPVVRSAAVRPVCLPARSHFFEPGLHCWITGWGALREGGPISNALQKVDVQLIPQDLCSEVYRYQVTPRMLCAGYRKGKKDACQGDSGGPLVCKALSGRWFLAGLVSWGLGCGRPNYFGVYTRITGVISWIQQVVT
Experimental: • Method I: Test compounds were evaluated for their potential to inhibit Human Recombinant Matriptase 2 (in-house) using fluorescence based assay. The concentration of Recombinant Matriptase 2 and the substrate used in the assay was: 3.5 nM (In-house Matriptase 2) and 62 μM (Boc-Gln-Ala-Arg-7-amido-4-methyl coumarin hydrobromide −Cat log: I-1550 from Bachem) respectively. The assay buffer used was 50 mM TRIS pH 7.5, 150 mM NaCl, 0.01% Gelatin TCL059 Himedia). The assay was performed using 384 well black flat bottom plate from grenier (Cat log: 781076) at 25° C. The enzyme and compound were preincubated for 30 mins, the plate was read at 60 mins after substrate addition at wavelength Ex: 360/Em: 480 nm. The final assay volume was 20 μl. A stock solution of compounds was initially prepared in DMSO and appropriate dilutions were made and IC50 was determined for all the compounds (final DMSO conc in the assay was 1%). All the measurements were carried out using the Spectramax M5, Molecular devices.
To determine Ki values, dose response curves were generated by plotting percentage inhibition as a function of inhibitor concentration and the data was fitted to sigmoidal non-linear regression equation (variable slope) using Graph Pad prism software V8.

Row | SMILES | Ki
1 | COC(=O)NCCOC(=O)c1cc2ccc(CN)nc2n1Cc1cc(NS(=O)(=O)Cc2ccccc2)cc2ccccc12 [Compound 75, 2-[(methoxycarbonyl)-amino]ethyl 6-(amino-methyl)-1-{[3-(phenyl-methanesulfonamido)-naphthalen-1-yl]methyl}-1H-pyrrolo[2,3-b]pyr-idine-2-carboxylate] | ≤ 100 nM
2 | NCc1ccc2cc(C(=O)OCCn3ccnn3)n(Cc3cc(NS(=O)(=O)Cc4ccccc4)cc4ccccc34)c2n1 [Compound 92, 2-(1H-1,2,3-triazol-1-yl-ethyl 6-(aminomethyl)-1-{[3-(phenylmethane-sulfonamido)naphthalen-1-yl]methyl}-1H-pyrrolo-[2,3-b]pyridine-2-carbox-ylate] | 100 to 500 nM
3 | CN(CCOC(=O)c1cc2ccc(CN)nc2n1Cc1cc(NS(=O)(=O)Cc2ccccc2)cc2ccccc12)C(=O)OC(C)(C)C [Compound 122, 2-{[(tert-butoxy)carbon-yl](methyl)amino}ethyl 6-(aminomethyl)-1-{[3-(phenylmethanesulfon-amido)naphthalen-1-yl]-methyl}-1H-pyrrolo[2,3-b]pyridine-2-carboxylate] | 500 to 3000 nM

Results, then the molecule that gave them:

Row | Ki | SMILES
4 | ≤ 100 nM | CC(C)N1CCC(CNC(=O)c2cc3ccc(CN)nc3n2Cc2cc(NS(=O)(=O)Cc3ccccc3)cc3ccccc23)CC1 [Compound 14, 6-(aminomethyl)-1-{[3-(phenylmethanesulfon-amido)naphthalen-1-yl]-methyl}-N-{[1-(propan-2-yl)piperidin-4-yl]-methyl}-1H-pyrrolo-[2,3-b]pyridine-2-car-boxamide]
5 | ≤ 100 nM | CN1CCC(CNC(=O)c2cc3ccc(CN)nc3n2Cc2cc(NS(=O)(=O)Cc3ccsc3)cc3ccccc23)CC1 [Compound 6, 6-(aminomethyl)-N-((1-methylpiperidin-4-yl)methyl)-1-((3-((thiophen-3-ylmethyl)sulfonamido)naphthalen-1-yl)methyl)-1H-pyrrolo[2,3-b]pyridine-2-carboxamide]
6 | ≤ 100 nM | NCc1ccc2cc(C(=O)OCCN3CCCC3)n(Cc3cc(NS(=O)(=O)Cc4ccccc4)cc4ccccc34)c2n1 [Compound 69, 2-(pyrrolidin-1-yl)ethyl 6-(aminomethyl)-1-{[3-(phenylmethanesulfon-amido)naphthalen-1-yl]-methyl}-1H-pyrrolo[2,3-b]pyridine-2-carboxylate]
7 | ≤ 100 nM | NCc1ccc2cc(C(=O)OCCN3CCCC3)n(Cc3cc(NS(=O)(=O)Cc4ccsc4)cc4ccccc34)c2n1 [Compound 177, 2-(pyrrolidin-1-yl)ethyl 6-(aminomethyl)-1-({3-[(thiophen-3-yl)methane-sulfonamido]naphthalen-1-yl}methyl)-1H-pyr-rolo[2,3-b]pyridine-2-carboxylate]
8 | ≤ 100 nM | NCc1ccc2cc(C(=O)OCC3CCN(CC4CC4)CC3)n(Cc3cc(NS(=O)(=O)Cc4ccccc4)cc4ccccc34)c2n1 [Compound 21, [1-(cyclopropylmeth-yl)piperidin-4-yl]methyl 6-(aminomethyl)-1-{[3-(phenylmethanesulfon-amido)naphthalen-1-yl]-methyl}-1H-pyrrolo[2,3-b]pyridine-2-carboxylate]
9 | ≤ 100 nM | CN1CCC(CN(C)C(=O)c2cc3ccc(CN)nc3n2Cc2cc(NS(=O)(=O)Cc3ccccc3)cc3ccccc23)CC1 [Compound 26, 6-(aminomethyl)-N-methyl-N-[(1-methyl-piperidin-4-yl)methyl]-1-{[3-(phenylmethane-sulfonamido)naphthalen-1-yl]methyl}-1H-pyr-rolo[2,3-b]pyridine-2-carboxamide]

same assay, conditions: Table A; Ki of Matriptase-2 given as class symbols; read-out: Mat-2 Ki

Row | SMILES | Ki
10 | NCc1ccc2cc(-c3nnn[nH]3)n(Cc3cc(NS(=O)(=O)Cc4ccccc4)cc4ccccc34)c2n1 [Compound 366, N-(4-((6-(aminomethyl)-2-(1H-tetrazol-5-yl)-1H-pyrrolo[2,3-b]pyridin-1-yl)methyl)naphthalen-2-yl)-1-phenylmethanesulfonamide] | ≤ 100 nM
11 | CNC(=O)c1cc2ccc(CN)nc2n1Cc1cc(NS(=O)(=O)CC2CCNCC2)cc2ccccc12 [Compound 215, 6-(aminomethyl)-N-methyl-1-({3-[(piperi-din-4-yl)methanesulfon-amido]naphthalen-1-yl}-methyl)-1H-pyrrolo[2,3-b]pyridine-2-carboxamide] | 100 to 500 nM
12 | NCc1ccc2cc(C(=O)O)n(Cc3cc(NS(=O)(=O)Cc4ccsc4)cc4c3CCCC4)c2n1 [Compound 287, 6-(aminomethyl)-1-({3-[(thiophen-3-yl)methane-sulfonamido]-5,6,7,8-tetrahydronaphthalen-1-yl}methyl)-1H-pyrrolo-[2,3-b]pyridine-2-carbox-ylic acid] | 100 to 500 nM
13 | CN(C)CCOC(=O)c1cc2ccc(CN)nc2n1Cc1cc(NS(=O)(=O)CC2CCNCC2)cc2ccccc12 [Compound 271, 2-(dimethylamino)ethyl 6-(aminomethyl)-1-({3-[(piperidin-4-yl)meth-anesulfonamido]naph-thalen-1-yl}methyl)-1H-pyrrolo[2,3-b]pyridine-2-carboxylate] | 500 to 3000 nM
14 | N#Cc1cccc(CS(=O)(=O)Nc2cc(Cn3c(C(=O)O)cc4ccc(CN)nc43)c3ccccc3c2)c1 [Compound 218, 6-(aminomethyl)-1-({3-[(3-cyanophenyl)meth-anesulfonamido]naph-thalen-1-yl}methyl)-1H-pyrrolo[2,3-b]pyridine-2-carboxylic acid] | 100 to 500 nM
15 | Cc1oc(=O)oc1COC(=O)NCc1ccc2cc(C(=O)O)n(Cc3cc(NS(=O)(=O)Cc4ccccc4)cc4ccccc34)c2n1 [Compound 359, 6-(((((5-methyl-2-oxo-1,3-dioxol-4-yl)methoxy)carbonyl)amino)methyl)-1-((3-((phenylmethyl)sulfonamido)naphthalen-1-yl)methyl)-1H-pyrrolo[2,3-b]pyridine-2-carboxylic acid] | 100 to 500 nM
16 | CNCCOC(=O)c1cc2ccc(CN)nc2n1Cc1cc(NS(=O)(=O)Cc2c(C)cccc2C)cc2ccccc12 [Compound 200, 2-(methylamino)ethyl 6-(aminomethyl)-1-({3-[(2,6-dimethylphenyl)-methanesulfonamido]-naphthalen-1-yl}meth-yl)-1H-pyrrolo[2,3-b]-pyridine-2-carboxylate] | 100 to 500 nM

Continued, values first:

Row | Ki | SMILES
17 | ≤ 100 nM | CN1CCC(COC(=O)c2cc3ccc(CN)cc3n2Cc2cc(NS(=O)(=O)Cc3ccsc3)cc3ccccc23)CC1 [Compound 374, (1-methylpiperidin-4-yl)-methyl 6-(aminomethyl)-1-({3-[(thiophen-3-yl)-methanesulfonamido]-naphthalen-1-yl}methyl)-1H-indole-2-carboxylate]
18 | 100 to 500 nM | COCCN1CCC(CS(=O)(=O)Nc2cc(Cn3c(C(=O)O)cc4ccc(CN)cc43)c3ccccc3c2)CC1 [Compound 390, 6-(aminomethyl)-1-[(3-{[1-(2-methoxyethyl)-piperidin-4-yl]methane-sulfonamido}naphthalen-1-yl)methyl]-1H-indole-2-carboxylic acid]
19 | ≤ 100 nM | Cc1cccc(C)c1CS(=O)(=O)Nc1cc(Cn2c(C(=O)NCCC3CCN(C)CC3)cc3ccc(CN)cc32)c2ccccc2c1 [Compound 373, 6-(aminomethyl)-1-({3-[(2,6-dimethylphenyl)-methanesulfonamido]-naphthalen-1-yl}methyl)-N-[2-(1-methylpiperidin-4-yl)ethyl]-1H-indole-2-carboxamide]
20 | ≤ 100 nM | CN1CCC(COC(=O)c2cc3ccc(CN)nc3n2Cc2cc(NS(=O)(=O)Cc3ccccc3O)cc3ccccc23)CC1 [Compound 203]

same assay, conditions: Table B; Human Recombinant Matriptase 2, 3.5 nM enzyme, 62 μM substrate, 30 mins preincubation; read-out: Mean Ki

Row | SMILES | Ki
21 | CN1CCC(COC(=O)c2cc3ccc(CN)nc3n2Cc2cccn3nccc23)CC1 [Compound 2.26] | > 3000 nM
22 | CN1CCC(COC(=O)c2cc3ccc(CN)nc3n2Cc2cccc3cnccc23)CC1 [Compound 2.46] | > 3000 nM

Second part, the molecule after the results:

Row | Ki | SMILES
23 | ≤ 100 nM | CN1CCC(COC(=O)c2cc3ccc(CN)nc3n2Cc2cc(NS(=O)(=O)Cc3ccsc3)cc3c2CCCC3)CC1=O (stereo not drawn) [Compound 2.22]
24 | ≤ 100 nM | CB1C=Cc2c(Cn3c(C(=O)OCC4CCN(C)CC4)cc4ccc(CN)nc43)cc(NS(=O)(=O)Cc3ccccc3)cc2N1 [Compound 2.25]
